{"source": "ChEMBL document CHEMBL1201862", "about": "“PubChem BioAssay data set” (2004)", "key": {"[1]": {"molecular_target": "T1, Calpain-2 catalytic subunit (Sus scrofa, UniProt P43367)", "T1 sequence (P43367 whole entry)": "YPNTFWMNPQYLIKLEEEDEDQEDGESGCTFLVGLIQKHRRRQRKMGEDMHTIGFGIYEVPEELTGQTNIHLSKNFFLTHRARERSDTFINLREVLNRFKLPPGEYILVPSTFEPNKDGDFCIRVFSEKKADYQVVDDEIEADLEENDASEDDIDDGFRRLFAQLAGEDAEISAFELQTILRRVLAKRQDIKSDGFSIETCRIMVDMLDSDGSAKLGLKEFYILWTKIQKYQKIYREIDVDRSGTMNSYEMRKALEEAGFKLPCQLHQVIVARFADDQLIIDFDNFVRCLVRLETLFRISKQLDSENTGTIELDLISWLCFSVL", "assay": "pig calpain II inhibitor potency, dose response, biochemical, fluorogenic peptide substrate (AID 1420)", "type": "functional"}, "Melanocortin receptor 4": {"molecular_target": "Melanocortin receptor 4 (Homo sapiens, UniProt P32245)", "sequence (P32245 whole entry)": "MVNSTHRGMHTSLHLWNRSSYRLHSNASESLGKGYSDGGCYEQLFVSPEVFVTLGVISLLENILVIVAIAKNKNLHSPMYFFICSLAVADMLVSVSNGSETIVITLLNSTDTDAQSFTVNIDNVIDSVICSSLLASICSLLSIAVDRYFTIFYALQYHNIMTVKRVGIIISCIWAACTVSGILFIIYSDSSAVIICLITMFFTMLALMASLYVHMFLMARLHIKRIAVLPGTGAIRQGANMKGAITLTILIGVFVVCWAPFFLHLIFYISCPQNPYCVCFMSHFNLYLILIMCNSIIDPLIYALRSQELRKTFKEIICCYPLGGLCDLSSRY", "type": "functional, cell-based"}, "Cytochrome P450 1A2": {"molecular_target": "T2, Cytochrome P450 1A2 (Homo sapiens, UniProt P05177)", "T2 sequence (P05177 whole entry)": "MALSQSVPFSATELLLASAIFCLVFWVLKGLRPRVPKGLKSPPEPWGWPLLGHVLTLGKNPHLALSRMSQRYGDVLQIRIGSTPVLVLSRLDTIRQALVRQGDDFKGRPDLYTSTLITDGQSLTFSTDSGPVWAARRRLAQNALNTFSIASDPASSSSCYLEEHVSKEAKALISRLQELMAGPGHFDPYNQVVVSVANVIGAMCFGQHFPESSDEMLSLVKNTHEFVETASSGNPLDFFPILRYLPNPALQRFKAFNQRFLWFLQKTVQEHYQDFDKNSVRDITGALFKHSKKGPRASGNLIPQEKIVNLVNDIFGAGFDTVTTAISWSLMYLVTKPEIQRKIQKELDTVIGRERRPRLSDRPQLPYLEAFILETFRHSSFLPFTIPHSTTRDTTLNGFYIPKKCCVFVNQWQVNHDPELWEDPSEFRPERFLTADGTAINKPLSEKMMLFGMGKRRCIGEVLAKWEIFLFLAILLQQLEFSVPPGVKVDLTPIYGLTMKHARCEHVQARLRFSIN"}, "Cytochrome P450 2C9": {"molecular_target": "Cytochrome P450 2C9 (Homo sapiens, UniProt P11712)", "sequence (P11712 whole entry)": "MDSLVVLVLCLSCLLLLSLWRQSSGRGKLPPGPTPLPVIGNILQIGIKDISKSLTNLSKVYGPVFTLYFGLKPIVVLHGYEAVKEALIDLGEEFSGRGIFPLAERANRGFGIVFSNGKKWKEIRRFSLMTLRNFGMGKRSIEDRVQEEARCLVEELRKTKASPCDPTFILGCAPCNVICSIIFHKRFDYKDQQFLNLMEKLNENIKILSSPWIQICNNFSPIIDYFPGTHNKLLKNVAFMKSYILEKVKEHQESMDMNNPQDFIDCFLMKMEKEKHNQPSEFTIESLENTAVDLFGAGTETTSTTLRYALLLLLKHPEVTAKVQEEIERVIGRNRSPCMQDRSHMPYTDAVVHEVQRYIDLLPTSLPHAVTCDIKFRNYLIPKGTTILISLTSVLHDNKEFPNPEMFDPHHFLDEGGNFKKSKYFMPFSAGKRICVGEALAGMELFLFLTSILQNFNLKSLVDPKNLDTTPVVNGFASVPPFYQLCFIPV"}, "[2]": {"molecular_target": "Luciferin 4-monooxygenase (Photinus pyralis, UniProt P08659)", "sequence (P08659 whole entry)": "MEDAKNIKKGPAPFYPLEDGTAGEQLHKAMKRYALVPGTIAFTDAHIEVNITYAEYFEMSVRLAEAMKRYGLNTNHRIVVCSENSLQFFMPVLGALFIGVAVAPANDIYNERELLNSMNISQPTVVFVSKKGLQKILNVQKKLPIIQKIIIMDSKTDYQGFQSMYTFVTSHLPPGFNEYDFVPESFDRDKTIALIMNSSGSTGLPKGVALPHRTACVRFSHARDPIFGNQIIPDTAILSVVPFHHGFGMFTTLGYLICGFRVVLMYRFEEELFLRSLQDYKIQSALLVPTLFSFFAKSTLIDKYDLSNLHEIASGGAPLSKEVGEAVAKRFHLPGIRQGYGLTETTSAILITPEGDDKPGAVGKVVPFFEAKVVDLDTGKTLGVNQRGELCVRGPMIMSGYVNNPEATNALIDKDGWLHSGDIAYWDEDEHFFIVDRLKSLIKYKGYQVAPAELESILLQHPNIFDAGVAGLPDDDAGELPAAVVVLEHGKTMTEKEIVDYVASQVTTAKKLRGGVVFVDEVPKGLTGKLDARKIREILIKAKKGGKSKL", "assay": "firefly luciferase enzyme inhibitors, dose response, biochemical, luminescence (AID 1891)"}, "[3]": {"assay": "Luminescence Cell-Based Dose Confirmation HTS to Identify Inhibitors of Platelet Dense Granule Release. [Related pubchem assays: 1663 (Primary HTS), 1678 (Summary of Project)]", "type": "functional"}, "[4]": {"assay": "A549 cell cytotoxicity, dose response, cytotoxicity control, plate reader, cherry-pick, antagonist series (AID 743412)", "type": "functional, cell-based"}, "[5]": {"assay": "HepG2 cell cytotoxicity, dose response, cytotoxicity control, plate reader, cherry-pick, antagonist series (AID 743416)", "type": "functional, cell-based"}, "[6]": {"assay": "LGR2 antagonists, dose response, cell-based, HEK293, CRE-luciferase reporter, cherry pick, set 2 (AID 743343);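 further: transfected cells were stimulated with diluted bursicon conditioned medium after compound addition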", "type": "functional"}, "[7]": {"assay": "MC4R antagonists, dose response, counter-screen for LGR2 antagonist project, cell-based, plate reader, cherry pick (AID 743444);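 further: transfected HEK 293 cells stimulated with alpha-MSH peptide; potency of inhibitors of the alpha-MSH evoked signal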", "type": "functional"}, "[8]": {"assay": "Luminescence-based cell-based high throughput dose response assay to identify activators of the DAF-12 from the parasite S. stercoralis (ssDAF-12).", "type": "functional"}, "[9]": {"molecular_target": "T3, Oxysterols receptor LXR-beta (Homo sapiens, UniProt P55055)", "T3 sequence (P55055 whole entry)": "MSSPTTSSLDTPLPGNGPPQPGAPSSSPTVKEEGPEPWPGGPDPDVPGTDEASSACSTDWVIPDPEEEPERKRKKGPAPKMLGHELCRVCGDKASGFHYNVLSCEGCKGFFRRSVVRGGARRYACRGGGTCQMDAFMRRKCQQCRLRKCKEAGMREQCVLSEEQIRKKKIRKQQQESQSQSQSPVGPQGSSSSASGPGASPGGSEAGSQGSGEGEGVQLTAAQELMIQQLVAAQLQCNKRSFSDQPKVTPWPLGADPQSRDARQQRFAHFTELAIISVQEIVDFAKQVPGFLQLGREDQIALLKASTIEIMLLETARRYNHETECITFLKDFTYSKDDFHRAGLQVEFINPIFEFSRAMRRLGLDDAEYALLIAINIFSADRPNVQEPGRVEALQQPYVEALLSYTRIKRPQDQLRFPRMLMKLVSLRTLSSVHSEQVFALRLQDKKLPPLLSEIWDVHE", "type": "functional, cell-based"}, "[10]": {"assay": "HEK293 cell cytotoxicity, dose response, cytotoxicity control, plate reader, cherry-picked samples (AID 743446)", "type": "functional, cell-based"}, "[11]": {"assay": "P. falciparum 3D7-ScDHODH growth inhibitors, dose response, SYBR Green, dry powder samples (AID 1159570);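 further: parasite growth measured after 72 hours of compound exposure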", "type": "functional, cell-based"}, "[12]": {"assay": "HepG2 cell cytotoxicity, dose response, cytotoxicity control, plate reader, dry powder samples (AID 1159569);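 further: inhibitor potency with signal falling toward the positive control level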", "type": "functional, cell-based"}, "[13]": {"assay": "P. falciparum Dd2 growth inhibitors, dose response, SYBR Green, cherry-picked samples (AID 1159567)", "type": "functional, cell-based"}, "[14]": {"assay": "P. falciparum Dd2 growth inhibitors, dose response, SYBR Green, dry powder samples (AID 1159566);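 further: potency for growth inhibition with lower SYBR green DNA signal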", "type": "functional, cell-based"}, "[15]": {"assay": "P. falciparum ATP4 D1247Y mutant growth inhibitors, dose response, NITD609-resistant line, SYBR Green, dry powder (AID 1159571);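 further: parasites synchronized at ring stage by sorbitol before testing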", "type": "functional, cell-based"}, "[16]": {"assay": "HEK293T cytotoxicity, dose response, cytotoxicity control for miR-122 modulator project, cell-based, activator set, cherry-pick (AID 720690);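 further: HEK293T human cells scored for general mammalian cytotoxicity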", "type": "functional"}, "HEK293": {"system": "HEK293", "assay": "inhibitors of LMP1-driven NF-kB reporter, dose response, cell-based, HEK293, luciferase, cherry-pick (AID 588343)", "type": "functional", "conditions": "Homo sapiens"}, "Protein skinhead-1": {"molecular_target": "T4, Protein skinhead-1 (Caenorhabditis elegans, UniProt P34707)", "T4 sequence (P34707 whole entry)": "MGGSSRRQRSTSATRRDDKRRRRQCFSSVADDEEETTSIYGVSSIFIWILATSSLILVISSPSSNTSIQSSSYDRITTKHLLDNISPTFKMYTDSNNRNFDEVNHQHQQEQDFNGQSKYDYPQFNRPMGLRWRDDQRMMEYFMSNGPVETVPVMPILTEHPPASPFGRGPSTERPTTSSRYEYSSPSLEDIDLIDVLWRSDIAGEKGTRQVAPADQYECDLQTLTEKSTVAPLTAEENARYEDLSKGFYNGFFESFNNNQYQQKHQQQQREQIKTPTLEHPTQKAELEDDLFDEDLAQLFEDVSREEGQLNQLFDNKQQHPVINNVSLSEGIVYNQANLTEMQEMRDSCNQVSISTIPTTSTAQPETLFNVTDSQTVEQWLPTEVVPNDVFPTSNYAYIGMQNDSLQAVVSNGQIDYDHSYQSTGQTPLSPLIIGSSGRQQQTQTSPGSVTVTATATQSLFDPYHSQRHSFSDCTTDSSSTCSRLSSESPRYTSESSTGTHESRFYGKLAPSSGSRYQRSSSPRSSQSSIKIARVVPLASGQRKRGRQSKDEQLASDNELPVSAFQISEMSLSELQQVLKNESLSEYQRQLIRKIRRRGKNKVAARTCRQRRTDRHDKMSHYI", "type": "functional"}, "fMet-Leu-Phe receptor": {"molecular_target": "T5, fMet-Leu-Phe receptor (Homo sapiens, UniProt P21462)", "T5 sequence (P21462 whole entry)": "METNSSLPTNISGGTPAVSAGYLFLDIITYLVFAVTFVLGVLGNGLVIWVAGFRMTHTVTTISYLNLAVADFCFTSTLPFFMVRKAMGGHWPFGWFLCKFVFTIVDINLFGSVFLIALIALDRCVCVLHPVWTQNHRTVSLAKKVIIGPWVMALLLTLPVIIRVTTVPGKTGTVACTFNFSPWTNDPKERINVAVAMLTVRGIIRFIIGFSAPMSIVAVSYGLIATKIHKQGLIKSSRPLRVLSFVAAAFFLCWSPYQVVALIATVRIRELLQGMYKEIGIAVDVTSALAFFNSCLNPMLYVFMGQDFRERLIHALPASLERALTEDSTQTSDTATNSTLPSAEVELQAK", "assay": "FPR ligands, dose response (AID 519)", "type": "functional"}, "[17]": {"assay": "inhibitors of PGC1a acetylation in cells, dose response, cell-based, cherry-picked samples (AID 720514);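 further: potency may reflect raised or lowered acetylation signal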", "type": "functional"}, "[18]": {"assay": "HepG2 cell cytotoxicity, dose response, cytotoxicity control, cherry-picked samples (AID 1159577)", "type": "functional, cell-based"}}, "note": "Active and inactive are the calls of the source."}
{"smiles": "CCOc1ccc(NC(=S)NC(=O)/C=C/c2ccc(C)cc2)c([N+](=O)[O-])c1", "values": [{"measurement": "IC50", "setting": "[1]", "result": "> 50 µM (not active)"}, {"measurement": "EC50", "setting": "Melanocortin receptor 4", "result": "> 89.2 µM (inactive)"}, {"measurement": "AC50", "setting": "Cytochrome P450 1A2", "result": "15.8 µM (inconclusive)"}, {"measurement": "AC50", "setting": "Cytochrome P450 2C9", "result": "3.55 µM (inconclusive)"}]}
{"smiles": "Cc1ccccc1/N=C/C1=C(O)c2ccccc2C1=O", "values": [{"measurement": "EC50", "setting": "[2]", "result": "1.02 µM (active)"}, {"measurement": "EC50", "setting": "[3]", "result": "3.79 µM (active)"}, {"measurement": "AC50", "setting": "[4]", "result": "> 52 µM (inactive)"}, {"measurement": "AC50", "setting": "[5]", "result": "> 52 µM (inactive)"}, {"measurement": "AC50", "setting": "[6]", "result": "1.03 µM (active)"}, {"measurement": "AC50", "setting": "[7]", "result": "1.67 µM (active)"}]}
{"smiles": "Oc1ccccc1-c1cc(-c2ccccc2)no1", "values": [{"measurement": "IC50", "setting": "[8]", "result": "> 67.5 µM (inactive)"}, {"measurement": "EC50", "setting": "[9]", "result": "> 67.5 µM (inactive)"}, {"measurement": "EC50", "setting": "cells", "result": "> 67.5 µM (inactive)"}]}
{"smiles": "CC(/C=C/C=C/c1ccccc1)=N/NC(=O)CNc1ccccc1C", "values": [{"measurement": "EC50", "setting": "Melanocortin receptor 4", "result": "> 89.3 µM (inactive)"}]}
{"smiles": "N#C[C@H]1[C@H](c2ccccc2C2=CCCCC2)[C@@H](CO)N1S(=O)(=O)c1ccccc1", "values": [{"measurement": "AC50", "setting": "[4]", "result": "7.94 µM (active)"}, {"measurement": "AC50", "setting": "[5]", "result": "4.61 µM (active)"}, {"measurement": "AC50", "setting": "[6]", "result": "7.76 µM (active)"}, {"measurement": "AC50", "setting": "[7]", "result": "2.67 µM (active)"}, {"measurement": "AC50", "setting": "[10]", "result": "13.9 µM (active)"}]}
{"smiles": "CCCN(C)C[C@@H]1Oc2cc(C#Cc3cccnc3)ccc2S(=O)(=O)N([C@H](C)CO)C[C@@H]1C", "values": [{"measurement": "AC50", "setting": "[11]", "result": "2.35 µM (active)"}, {"measurement": "AC50", "setting": "[12]", "result": "> 100 µM (inactive)"}, {"measurement": "AC50", "setting": "[13]", "result": "2.09 µM (active)"}, {"measurement": "AC50", "setting": "[14]", "result": "1.45 µM (active)"}, {"measurement": "AC50", "setting": "[15]", "result": "1.03 µM (active)"}]}
{"smiles": "COc1ccccc1CNc1nc(Nc2ccccc2Cl)c2sccc2n1", "values": [{"measurement": "AC50", "setting": "[16]", "result": "2.71 µM (active)"}]}
{"smiles": "COc1ccc(-c2nc(-c3cccs3)no2)cc1", "values": [{"measurement": "EC50", "setting": "[2]", "result": "1.59 µM (active)"}, {"measurement": "EC50", "setting": "[3]", "result": "18.7 µM (active)"}, {"measurement": "AC50", "setting": "HEK293", "result": "1.7 µM (active)"}, {"measurement": "IC50", "setting": "Protein skinhead-1", "result": "> 100 µM (inactive)"}, {"measurement": "AC50", "setting": "[6]", "result": "2.18 µM (active)"}, {"measurement": "AC50", "setting": "[7]", "result": "3.02 µM (active)"}, {"measurement": "AC50", "setting": "[10]", "result": "> 52 µM (inactive)"}]}
{"smiles": "CCOC(=O)c1c(NC(=O)c2cc(C3CC3)on2)sc2c1CCCC2", "values": [{"measurement": "Ki", "setting": "fMet-Leu-Phe receptor", "result": "> 66.7 µM (inactive)"}]}
{"smiles": "CN(C)CCCN(C(=O)CCOc1ccccc1)c1nc2ccc(F)cc2s1", "values": [{"measurement": "AC50", "setting": "[17]", "result": "12.8 µM (active)"}]}
{"smiles": "C(=C\\c1ccc([C@@H]2[C@@H]3CN(Cc4cccnc4)C[C@H]2N3)cc1)/c1ccccc1", "values": [{"measurement": "AC50", "setting": "[13]", "result": "< 0.3 µM (active)"}, {"measurement": "AC50", "setting": "[18]", "result": "10.8 µM (active)"}]}
